Series [1] relates to Non-Hodgkin's B cell lymphoma (RL) tumor. As to the kind of experiment: RL human tumor xenograft regression assay. The series is classed as in vivo, human tumor in female NIH Swiss nude mice. The note with it: for gross toxicity: 2780 75, 2889 90, 2897 75, 2900 60, 2727 60 mg/kg (2727: reduced to once per day); for tumor regression: within the first two weeks of dosing, IV morning + IP afternoon, 2780 75, 2889 90, 2897 75, 2900 60, 2727 60 mg/kg; for average tumor volume, % of tumor volume obtained in the control: Day 21, 75 mg/kg. The method, then:
The antitumor activity of a cyanoguanidine compound of this invention can also be evaluated by in vivo testing, e.g., human tumor xenograft regression assays. Animals bearing established tumors are treated with a test compound for a three-week period. The growth of the tumors and the general health of the animal are monitored during the three-week treatment and for two more weeks after treatment to determine if tumor regrowth occurs. See Example 150 below.
(§1) From the in vitro results obtained, cyanoguanidine compounds were selected for human tumor xenograft regression assays. Animals bearing established tumors (RL) were treated with a test compound for a three-week period. The growth of the tumors and the general health of the animals were monitored during the treatment and for an additional two weeks after dosing had been terminated to determine if tumor regrowth took place.
(§2) Non-Hodgkin's B cell lymphoma (RL) tumor cells, which were adapted to grow as solid tumors, were implanted by an intradermal injection of a tumor cell suspension (30×10^6 cells in 0. 1 mL media) in the flanks of female NIH Swiss nude mice (Taconic Labs). Each mouse was implanted with one tumor and 6-8 mice per group were used.
(§3) Dosing was initiated one week after implantation (Day 1), when tumors reached approximately 50 to 100 mm^3 in volume, with a test compound or vehicle five times per week for three weeks either intravenously (IV) or intraperitoneally (IP). Cyclophosphamide (CTX, Sigma) was used as a standard in the assays. Compounds were first dissolved in DMSO (Sigma) and formulated with 20% Cremophor RH40 (BASF) to a final concentration of 10% DMSO/18% Cremophor. The formulated solution was made fresh daily.
(§4) Tumors, assumed to be hemi-ellipsoid in shape, were measured with calipers in three dimensions. Tumor volumes were calculated using the equation:
(§5) where L=length, W=width, and H=height of the tumor. Animals were weighed and their general health was monitored during the course of the assay. When tumors became necrotic or if animals became moribund, the animals were euthanized by CO2 asphyxiation. Student's t test was used to determine if there was a significant difference between the data obtained in the compound treated group and the vehicle treated group.
In a preliminary RL tumor growth regression assay, eight compounds were administered twice a day (via IV route in the morning and IP route in the afternoon) for five days per week for a three-week period. […] For comparison, cyclophosphamide, reduced the average tumor volume to 2% of control by Day 18. […] Compounds SBR-11-2899 (75 mg/kg), SBR-11-2750 (75 mg/kg), and SBR-11-2749 (75 mg/kg) reduced the average tumor volume to 10%, 14%, and 18% of the tumor volume obtained in the control on Day 21, respectively. One compound, SBR-11-4483 (60 mg/kg) was administered once per day (via IV route) for a two-week period. By day 19, a reduction of the average tumor volume to 1% was observed.
On the technique in general: A xenograft is tissue or cells of one species grown in another, often human tumour cells in immunodeficient mice.

The test system is the same in series [2]. As to the kind of experiment: RL tumor growth regression assay, dose dependence. The series is classed as in vivo. The settings on record: for weight loss: all mice except one CTX-treated mouse; for effect on tumor volume (in words): three doses. The method, then:
as §1, §2, §3, §4, §5
The ability of compounds to act in a dose dependent manner was assayed in an RL tumor growth regression assay using compounds SBR-11-2897 and SBR-11-2780.

In series [3] the test system is tumor cell line (PC-3) versus normal cell line (CV-1). As to the kind of experiment: Tumor cell selectivity: IC50 normal cell line (CV-1) versus tumor cell line (PC-3). The settings on record: CV-1 normal cell line vs PC-3 tumor cell line. The series is classed as cell-based, human (PC-3); monkey (CV-1, transformed monkey kidney cells). As to the method: The antitumor activity of a cyanoguanidine compound of this invention can be evaluated by MTS colorimetric assay (see Example 149 below). Results obtained by using cell lines of various types of tumors are compared with those obtained by using cell lines of normal cells in this assay. Viability of the cells in each cell line is estimated by measuring the cellular conversion of a tetrazolium salt after incubating the cells in a solution containing a test cyanoguanidine compound in a 96 well plate. IC50 values obtained by using an identical test compound on normal cells and cells of a particular tumor cell line are compared and their ratio (IC50 normal cell /IC50 cancer cell) indicates the cancer selectivity of that test compound. The higher the ratio, the higher the selectivity of the test compound towards that particular type of cancer cell.
In the secondary screening, IC50 values were determined. Cells were seeded at a low cell density in 96 well flat-bottom plates and incubated for 24 hours at 37° C. in a 7% CO2 atmosphere. […]

Setting [4] is: twice a day IV + IP, 5 days/week, 3 weeks.
The mark [5] stands for this setting: twice a day IV + IP, 5 days/week, 3 weeks, 2780 75, 2889 90, 2897 75, 2900 60 mg/kg.

For `N#CN=C(NCc1ccc(NC(=O)C2c3ccccc3-c3ccccc32)cc1)Nc1ccncc1` [SBR-11-2727, 9H-fluorene-9-carboxylic acid (4-(N'-cyano-N"-pyridin-4-yl-guanidinomethyl)-phenyl)-amide], the gross toxicity result in series [1] (setting [4]) is given as “signs of gross toxicity within the first week”. The tumor regression result in series [1] (5 days/week) is listed as “completely regressed all tumors”.

For the molecule `COc1ccc2cc(C(C)C(=O)Nc3ccc(CNC(=NC#N)Nc4ccncc4)cc3)ccc2c1` (stereo not shown) [SBR-11-2749, 2-(6-Methoxy-naphthalen-2-yl)-N-(4-(N'-cyano-N"-pyridin-4-yl-guanidinomethyl)-phenyl)-propionamide], in series [1] (twice a day IV + IP), the “average tumor volume, % of tumor volume obtained in the control” value (“average tumor volume, % … in the control” below) amounted to 18%.

Regarding `N#CN=C(NCc1ccc(NC(=O)c2ccccc2Cc2ccccc2)cc1)Nc1ccncc1` [SBR-11-2750, 2-Benzyl-N-(4-(N'-cyano-N"-pyridin-4-yl-guanidinomethyl)-phenyl)-benzamide], the “average tumor volume, % … in the control” value in series [1] (twice a day IV + IP) came to 14%.

On to `Cc1c(C)c2c(c(C)c1O)CCC(C)(C(=O)Nc1ccc(CNC(=NC#N)Nc3ccncc3)cc1)O2` (stereo not shown) [SBR-11-2780, 6-Hydroxy-2,5,7,8-tetramethyl-chroman-2-carboxylic acid (4-(N'-cyano-N"-pyridin-4-yl-guanidinomethyl)-phenyl)-amide], for which the weight loss result is recorded as “less than 10%” in series [1] (setting [5]) and “Less than 10%” in series [2]. Further, the gross toxicity result in series [1] (setting [4]) is on record as “little gross toxicity”. Besides, the tumor regression result in series [1] (5 days/week) is given as “completely regressed all tumors”. Further, the figures for the “average tumor volume, % of control group” value in series [2] (20 mg/kg), in series [2] (40 mg/kg) and in series [2] (80 mg/kg) were 86%, 24% and 3%, respectively. The “effect on tumor volume (in words)” value in series [2] is “dose dependent effect”.

In the case of `Cc1cc(C)c(S(=O)(=O)Nc2ccc(CNC(=NC#N)Nc3ccncc3)cc2)c(C)c1` [SBR-11-2889, 2,4,6-Trimethyl-N-(4-(N'-cyano-N"-pyridin-4-yl-guanidinomethyl)-phenyl)-benzenesulfonamide], in series [1] (setting [5]), the weight loss result was “less than 10%”. Further, the gross toxicity result in series [1] (setting [4]) is “little gross toxicity”. Further, the tumor regression result in series [1] (5 days/week) was “completely regressed all tumors”.

Consider `CN(C)c1cccc2c(S(=O)(=O)Nc3ccc(CNC(=NC#N)Nc4ccncc4)cc3)cccc12` [SBR-11-2897, 5-Dimethylamino-naphthalene-1-sulfonic acid (4-(N'-cyano-N"-pyridin-4-yl-guanidinomethyl)-phenyl)-amide], for which, in series [1] (setting [5]), the weight loss result is listed as “less than 10%”. For the same molecule, in series [1] (setting [4]), the gross toxicity result was “little gross toxicity”. The tumor regression result in series [1] (5 days/week) was “completely regressed all tumors”. Moreover, in series [2], the weight loss result was “Less than 10%” and the “effect on tumor volume (in words)” value is given as “almost complete reduction of average tumor volumes”.

Turning to `N#CN=C(NCc1ccc(NS(=O)(=O)c2cccc(C(F)(F)F)c2)cc1)Nc1ccncc1` [SBR-11-2899, N-(4-(N'-Cyano-N"-pyridin-4-yl-guanidinomethyl)-phenyl)-3-trifluoromethyl-benzenesulfonamide], in series [1] (twice a day IV + IP), the “average tumor volume, % … in the control” value amounted to 10%.

For the molecule `N#CN=C(NCc1ccc(NS(=O)(=O)c2cccc3ccccc23)cc1)Nc1ccncc1` [SBR-11-2900, Naphthalene-1-sulfonic acid (4-(N'-cyano-N"-pyridin-4-yl-guanidinomethyl)-phenyl)-amide], in series [1] (setting [5]), the weight loss entry is “less than 10%”. Further, the gross toxicity entry in series [1] (setting [4]) is “little gross toxicity”. Besides, the tumor regression entry in series [1] (5 days/week) is reported as “completely regressed all tumors”.

For the molecule `N#CNC(=Nc1ccncc1)NCCN1CCC(OC(c2ccccc2)c2ccccc2)CC1` [SBR-11-4483, N-[2-(4-Benzhydryloxy-piperidin-1-yl)-ethyl]-N'-cyano-N"-pyridin-4-yl-guanidine], the weight loss result in series [1] (60 mg/kg once per day IV, two weeks) was “less than 10%”. For the same molecule, the “reduction of the average tumor volume to” value in series [1] (by day 19, 60 mg/kg once per day IV, two weeks) was found to be 1%.

For the molecule `CC(=O)O[C@H]1C(=O)[C@@]2(C)[C@H]([C@H](OC(=O)c3ccccc3)[C@]3(O)C[C@H](OC(=O)[C@H](O)[C@@H](NC(=O)c4ccccc4)c4ccccc4)C(C)=C1C3(C)C)[C@]1(OC(C)=O)CO[C@@H]1C[C@@H]2O` [Taxol], the “selectivity of tumor cells (IC50 normal cell /IC50 cancer cell)” value in series [3] was found to be 20 fold.

With `O=P1(N(CCCl)CCCl)NCCCO1` (stereo not shown) [cyclophosphamide, Cyclophosphamide, reference compound], the “average tumor volume, % of control” value in series [1] (by Day 18, cyclophosphamide standard) was found to be 2%.

The record behind these values is patent US6255323A, “Cyanoguanidine compounds” (Shionogi Bioresearch Corp., priority 2000, dated 2001).
